Reference: US20230399313A1, “BIOLOGICAL ACTIVITIES OF 5-(2-(4-(4-FLUORO-2-METHYL-1H-INDOL-5-YLOXY)-6-METHOXYQUINOLIN-7-YLOXY)ETHYL)-5-AZASPIRO[2.4]-HEPTAN-7-OL CRYSTALLINE, PHOSPHORIC ACID SALT AND ITS ENANTIOMERS” (Advenchen Pharmaceuticals, LLC, priority 2022, published 2023)
In brackets after ≈: the same amount, converted by molar mass.

Experiments:
PANC-1 = assay: In vitro MTT (proliferation) assay; format: cell-based; settings: Homo sapiens, PANC-1 cell line, pancreas
Procedure: (§1) The inhibitions of Compound A-Xln, Compound A-P-Xln and two chiral isomers (Compound R-A, Compound S-A) to cancer cell lines are tested via in vitro MTT assay. Cancer cell lines are selected from PANC-1, NCI-H157, MDA-MB-231, Hela, PC-3, BEL7404, MKN45, Ishikawa, Saos-2, SKOV3, SW579 and HCT116 cell lines. The IC50 values are in the micromole scale.
(§2) In vitro MTT (proliferation) assay was performed with compound from above examples to give following inhibition results: […]

SW579 = assay: In vitro MTT (proliferation) assay; format: cell-based; settings: SW579 cell line, thyroid
Procedure: as §1, §2

PC-3 = assay: In vitro MTT (proliferation) assay; format: cell-based; settings: Homo sapiens, PC-3 cell line, prostate
Procedure: as §1, §2

SKOV3 = assay: In vitro MTT (proliferation) assay; format: cell-based; settings: Homo sapiens, SK-OV-3; SKOV3 cell line, ovary; MTT; read-out: SKOV3 IC50
Procedure: as §1, §2

Hela = assay: In vitro MTT (proliferation) assay; format: cell-based; settings: Homo sapiens; Hela cell line, ovary (so in the source); MTT; read-out: Hela IC50
Procedure: as §1, §2

Saos-2 = assay: In vitro MTT (proliferation) assay; format: cell-based; settings: Homo sapiens, Saos-2 cell line, sarcoma
Procedure: as §1, §2

BEL7404 = assay: In vitro MTT (proliferation) assay; format: cell-based; settings: Homo sapiens, BEL-7404, BEL7404 cell line, ovary (so in the source)
Procedure: as §1, §2

HCT-116 = assay: In vitro MTT (proliferation) assay; format: cell-based; settings: Homo sapiens, HCT116 cell line, colon, MTT, read-out: HCT116 IC50
Procedure: as §1, §2

MDA-MB-231 = assay: In vitro MTT (proliferation) assay; format: cell-based; settings: Homo sapiens; MDA-MB-231 cell line, breast; MTT; read-out: MDA-MB-231 IC50
Procedure: as §1, §2

Ishikawa = assay: In vitro MTT (proliferation) assay; format: cell-based; settings: Homo sapiens, Ishikawa cell line, endometrial
Procedure: as §1, §2

MKN45 = assay: In vitro MTT (proliferation) assay; format: cell-based; settings: Homo sapiens, MKN-45, MKN45 cell line, breast (so in the source)
Procedure: as §1, §2

NCI-H157 = assay: In vitro MTT (proliferation) assay; format: cell-based; settings: Homo sapiens, NCI-H157 cell line, lung
Procedure: as §1, §2

[1] = Stability of amorphous and crystalline form API at 60° C. (HPLC related substances); format: physicochemical
Procedure: The samples of amorphous and crystalline form API of Compound A were placed in clean containers and the environmental temperature was controlled at 60° C. The purity of amorphous (Compound A-Amp) and crystalline form (Compound A-Xln) of Compound A were tested at Day 0, Day 10 and Day 30. Samples of amorphous and crystalline form APIs were measured, and the appropriate amount of diluent was added to dissolve with sonication. The concentration was controlled at 0.2 mg/ml and the purification was determined by HPLC with UV detector at 230 nm. Results were listed in the table as follows and the fitted curve is in Drawing Sections as FIG. 6.

Water solubility = format: physicochemical
[2] = high temperature 60° C., 10 days
[3] = high temperature 60° C., 30 days

COc1cc2c(Oc3ccc4[nH]c(C)cc4c3F)ccnc2cc1OCCN1C[C@H](O)C2(CC2)C1 [Compound R-A]
IC50 (PANC-1): 5.64 µM
IC50 (SW579): 0.906 µM
IC50 (PC-3): 2.75 µM
IC50 (SKOV3): 3.71 µM
IC50 (Hela): 6.69 µM
IC50 (Saos-2): 3.08 µM
IC50 (BEL7404): 4.06 µM
IC50 (HCT-116): 0.883 µM
IC50 (MDA-MB-231): 9.6 µM
IC50 (Ishikawa): 4.61 µM
IC50 (MKN45): 0.43 µM
IC50 (NCI-H157): 8.11 µM

COc1cc2c(Oc3ccc4[nH]c(C)cc4c3F)ccnc2cc1OCCN1CC(O)C2(CC2)C1 (stereo not shown) [Compound A-Amp, 5-(2-(4-(4-fluoro-2-methyl-1H-indol-5-yloxy)-6-methoxyquinolin-7-yloxy)ethyl)-5-azaspiro[2.4]-heptan-7-ol]
Maximum impurities (%) ([1]; 0 day): 0.075%
Total impurities (%) ([1]; 0 day): 0.26%
Maximum impurities (%) [1, 2]: 0.191%
Total impurities (%) [1, 2]: 0.323%
Maximum impurities (%) [1, 3]: 0.327%
Total impurities (%) [1, 3]: 0.583%

COc1cc2c(Oc3ccc4[nH]c(C)cc4c3F)ccnc2cc1OCCN1CC(O)C2(CC2)C1 (stereo not shown) [Compound A-P-Xln, 5-(2-(4-(4-fluoro-2-methyl-1H-indol-5-yloxy)-6-methoxyquinolin-7-yloxy)ethyl)-5-azaspiro[2.4]-heptan-7-ol]
IC50 (PANC-1): 2.75 µM
IC50 (SW579): 0.88 µM
IC50 (PC-3): 1.77 µM
IC50 (SKOV3): 3.09 µM
IC50 (Hela): 2.36 µM
IC50 (Saos-2): 2.48 µM
IC50 (BEL7404): 1.75 µM
IC50 (HCT-116): 0.934 µM
IC50 (MDA-MB-231): 3.93 µM
IC50 (Ishikawa): 1.48 µM
IC50 (MKN45): 0.13 µM
IC50 (NCI-H157): 1.61 µM

COc1cc2c(Oc3ccc4[nH]c(C)cc4c3F)ccnc2cc1OCCN1CC(O)C2(CC2)C1 (stereo not shown) [Compound A-P, 5-(2-(4-(4-fluoro-2-methyl-1H-indol-5-yloxy)-6-methoxyquinolin-7-yloxy)ethyl)-5-azaspiro[2.4]-heptan-7-ol]
solubility (Water solubility): 0.36 mg/mL (≈ 754 µM)

COc1cc2c(Oc3ccc4[nH]c(C)cc4c3F)ccnc2cc1OCCN1C[C@@H](O)C2(CC2)C1 [Compound S-A]
IC50 (PANC-1): 5 µM
IC50 (SW579): 0.836 µM
IC50 (PC-3): 5.6 µM
IC50 (SKOV3): 7.65 µM
IC50 (Hela): 6.3 µM
IC50 (Saos-2): 5.35 µM
IC50 (BEL7404): 2.38 µM
IC50 (HCT-116): 0.98 µM
IC50 (MDA-MB-231): 6.6 µM
IC50 (Ishikawa): 4.98 µM
IC50 (MKN45): 0.32 µM
IC50 (NCI-H157): 7 µM
